How the values were obtained:
[1] = target: GDP-bound HRAS wild-type protein (Homo sapiens, UniProt P01112); assay: Binding to HRAS by surface plasmon resonance (SPR), Single Cycle Kinetics; settings: KD ratio, GDP-bound HRAS wild-type vs GDP-bound KRAS wild-type, SPR
[2] = target: GDP-bound NRAS wild-type protein (Homo sapiens, UniProt P01111); assay: Binding to NRAS by surface plasmon resonance (SPR), Single Cycle Kinetics; settings: KD ratio, GDP-bound NRAS wild-type vs GDP-bound KRAS wild-type, SPR
Sequence of GDP-bound NRAS wild-type protein (P01111 whole entry): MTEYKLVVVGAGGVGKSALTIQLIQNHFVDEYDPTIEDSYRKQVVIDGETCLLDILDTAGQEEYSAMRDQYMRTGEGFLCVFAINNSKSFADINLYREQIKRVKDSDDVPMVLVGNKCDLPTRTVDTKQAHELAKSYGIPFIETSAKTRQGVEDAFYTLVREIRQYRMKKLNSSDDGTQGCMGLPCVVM

Sequence of GDP-bound HRAS wild-type protein (P01112 whole entry): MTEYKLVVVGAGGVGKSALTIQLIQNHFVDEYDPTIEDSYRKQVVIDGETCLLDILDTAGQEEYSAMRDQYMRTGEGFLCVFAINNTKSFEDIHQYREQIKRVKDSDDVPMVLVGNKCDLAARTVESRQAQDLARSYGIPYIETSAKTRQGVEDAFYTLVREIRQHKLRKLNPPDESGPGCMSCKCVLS

| Compound | HRAS/KRAS (ratio of KD value for HRAS to KD value for KRAS) [1] | NRAS/KRAS (ratio of KD value for NRAS to KD value for KRAS) [2] |
| --- | --- | --- |
| CCCN(C)C(=O)[C@@H]1CC(=O)N(C)[C@@H](CC(F)F)C(=O)N[C@@H]([C@@H](C)CC)C(=O)N(C)CC(=O)N(C)[C@H]2C/C=C\CCN(C2=O)[C@@H](Cc2ccc(C(F)(F)F)cc2)C(=O)N(C)CC(=O)N[C@@H](CCc2ccc(C(F)(F)F)c(OC)c2)C(=O)N2C[C@H](OCC)C[C@H]2C(=O)NC2(CCC2)C(=O)N(C)[C@@H](C2CCCC2)C(=O)N1C [PP2013] | B (a compound having 3 or more and less than 10 is denoted as B) | A (a compound having 10 or more and less than 20 is denoted as A) |
| CCOC[C@H]1C(=O)N[C@@H]([C@@H](C)CC)C(=O)N(C)CC(=O)N(C)[C@H]2C/C=C\CCN(C2=O)[C@@H](Cc2ccc(C(F)(F)F)cc2)C(=O)N(C)CC(=O)N[C@@H](CCc2ccc(C(F)(F)F)c(OC)c2)C(=O)N2C[C@H](OCC)C[C@H]2C(=O)NC2(CC(C)(C)C2)C(=O)N(C)[C@@H](C2CCCC2)C(=O)N(C)[C@H](C(=O)N(C)CC)CC(=O)N1C [PP2014] | A (a compound having 10 or more and less than 20 is denoted as A) | A (a compound having 10 or more and less than 20 is denoted as A) |
| CCCN(C)C(=O)[C@@H]1CC(=O)N(C)[C@@H](COCC)C(=O)N[C@@H]([C@@H](C)CC)C(=O)N(C)CC(=O)N(C)[C@H]2C/C=C\CCN(C2=O)[C@@H](Cc2ccc(C(F)(F)F)cc2)C(=O)N(C)CC(=O)N[C@@H](CCc2ccc(C(F)(F)F)c(OC)c2)C(=O)N2C[C@H](OCC)C[C@H]2C(=O)NC2(CCC2)C(=O)N(C)[C@@H](C2CCCC2)C(=O)N1C [PP2015] | B (a compound having 3 or more and less than 10 is denoted as B) | A (a compound having 10 or more and less than 20 is denoted as A) |
| CCCOC[C@H]1C(=O)N[C@@H]([C@@H](C)CC)C(=O)N(C)CC(=O)N(C)[C@H]2C/C=C\CCN(C2=O)[C@@H](Cc2ccc(C(F)(F)F)cc2)C(=O)N(C)CC(=O)N[C@@H](CCc2ccc(C(F)(F)F)c(OC)c2)C(=O)N2C[C@H](OCC)C[C@H]2C(=O)NC2(CCC2)C(=O)N(C)[C@@H](C2CCCC2)C(=O)N(C)[C@H](C(=O)N(C)CC)CC(=O)N1C [PP2016] | A (a compound having 10 or more and less than 20 is denoted as A) | A (a compound having 10 or more and less than 20 is denoted as A) |
| CCCOC[C@H]1C(=O)N[C@@H]([C@@H](C)CC)C(=O)N(C)CC(=O)N(C)[C@H]2C/C=C\CCN(C2=O)[C@@H](Cc2ccc(C(F)(F)F)cc2)C(=O)N(C)CC(=O)N[C@@H](CCc2ccc(C(F)(F)F)c(OC)c2)C(=O)N2C[C@H](OCC)C[C@H]2C(=O)NC2(CCC2)C(=O)N(C)[C@@H](C2CCCC2)C(=O)N(C)[C@H](C(=O)N(C)CCC)CC(=O)N1C [PP2017] | A (a compound having 10 or more and less than 20 is denoted as A) | A (a compound having 10 or more and less than 20 is denoted as A) |
| CCCN(C)C(=O)[C@@H]1CC(=O)N(C)[C@@H](CCOC)C(=O)N[C@@H]([C@@H](C)CC)C(=O)N(C)CC(=O)N(C)[C@H]2C/C=C\CCN(C2=O)[C@@H](Cc2ccc(C(F)(F)F)cc2)C(=O)N(C)CC(=O)N[C@@H](CCc2ccc(C(F)(F)F)c(OC)c2)C(=O)N2C[C@H](OCC)C[C@H]2C(=O)NC2(CCC2)C(=O)N(C)[C@@H](C2CCCC2)C(=O)N1C [PP2018] | B (a compound having 3 or more and less than 10 is denoted as B) | A (a compound having 10 or more and less than 20 is denoted as A) |
| CCCN(C)C(=O)[C@@H]1CC(=O)N(C)[C@@H](C(C)C)C(=O)N[C@@H]([C@@H](C)CC)C(=O)N(C)CC(=O)N(C)[C@H]2C/C=C\CCN(C2=O)[C@@H](Cc2ccc(C(F)(F)F)cc2)C(=O)N(C)CC(=O)N[C@@H](CCc2ccc(C(F)(F)F)c(OC)c2)C(=O)N2C[C@H](OCC)C[C@H]2C(=O)NC2(CCC2)C(=O)N(C)[C@@H](C2CCCC2)C(=O)N1C [PP2020] | A (a compound having 10 or more and less than 20 is denoted as A) | A (a compound having 10 or more and less than 20 is denoted as A) |
| CCO[C@@H]1C[C@H]2C(=O)NC3(CCC3)C(=O)N(C)[C@@H](C3CCCC3)C(=O)N(C)[C@H](C(=O)N(C)CC)CC(=O)N(C)[C@@H](C3CC3)C(=O)N[C@@H]([C@@H](C)CC)C(=O)N(C)CC(=O)N(C)[C@H]3C/C=C\CCN(C3=O)[C@@H](Cc3ccc(C(F)(F)F)cc3)C(=O)N(C)CC(=O)N[C@@H](CCc3ccc(C(F)(F)F)c(OC)c3)C(=O)N2C1 [PP2021] | B (a compound having 3 or more and less than 10 is denoted as B) | A (a compound having 10 or more and less than 20 is denoted as A) |
| CCO[C@@H]1C[C@H]2C(=O)NC3(CCC3)C(=O)N(C)[C@@H](C3CCCC3)C(=O)N(C)[C@H](C(=O)N(C)CC)CC(=O)N(C)[C@@H](C3CCC3)C(=O)N[C@@H]([C@@H](C)CC)C(=O)N(C)CC(=O)N(C)[C@H]3C/C=C\CCN(C3=O)[C@@H](Cc3ccc(C(F)(F)F)cc3)C(=O)N(C)CC(=O)N[C@@H](CCc3ccc(C(F)(F)F)c(OC)c3)C(=O)N2C1 [PP2022] | A (a compound having 10 or more and less than 20 is denoted as A) | A (a compound having 10 or more and less than 20 is denoted as A) |
| CCCN(C)C(=O)[C@@H]1CC(=O)N(C)[C@@H](C2CCC2)C(=O)N[C@@H]([C@@H](C)CC)C(=O)N(C)CC(=O)N(C)[C@H]2C/C=C\CCN(C2=O)[C@@H](Cc2ccc(C(F)(F)F)cc2)C(=O)N(C)CC(=O)N[C@@H](CCc2ccc(C(F)(F)F)c(OC)c2)C(=O)N2C[C@H](OCC)C[C@H]2C(=O)NC2(CCC2)C(=O)N(C)[C@@H](C2CCCC2)C(=O)N1C [PP2023] | B (a compound having 3 or more and less than 10 is denoted as B) | A (a compound having 10 or more and less than 20 is denoted as A) |
| CCCN(C)C(=O)[C@@H]1CC(=O)N(C)[C@@H](CC(F)F)C(=O)N[C@@H]([C@@H](C)CC)C(=O)N(C)CC(=O)N(C)[C@H]2C/C=C\CCN(C2=O)[C@@H](Cc2ccc(C(F)(F)F)cc2)C(=O)N(C)CC(=O)N[C@@H](CCc2ccc(C(F)(F)F)c(OC)c2)C(=O)N2C[C@@H](C)C[C@H]2C(=O)NC2(CCC2)C(=O)N(C)[C@@H](C2CCCC2)C(=O)N1C [PP2024] | B (a compound having 3 or more and less than 10 is denoted as B) | A (a compound having 10 or more and less than 20 is denoted as A) |
| CCCN(C)C(=O)[C@@H]1CC(=O)N(C)[C@@H](COCC)C(=O)N[C@@H]([C@@H](C)CC)C(=O)N(C)CC(=O)N(C)[C@H]2C/C=C\CCN(C2=O)[C@@H](Cc2ccc(C(F)(F)F)cc2)C(=O)N(C)CC(=O)N[C@@H](CCc2ccc(C(F)(F)F)c(OC)c2)C(=O)N2C[C@@H](C)C[C@H]2C(=O)NC2(CCC2)C(=O)N(C)[C@@H](C2CCCC2)C(=O)N1C [PP2025] | B (a compound having 3 or more and less than 10 is denoted as B) | A (a compound having 10 or more and less than 20 is denoted as A) |
| CCOC[C@H]1C(=O)N[C@@H]([C@@H](C)CC)C(=O)N(C)CC(=O)N(C)[C@H]2C/C=C\CCN(C2=O)[C@@H](Cc2ccc(C(F)(F)F)cc2)C(=O)N(C)CC(=O)N[C@@H](CCc2ccc(C(F)(F)F)c(OC)c2)C(=O)N2C[C@@H](C)C[C@H]2C(=O)NC2(CCC2)C(=O)N(C)[C@@H](C2CCCC2)C(=O)N(C)[C@H](C(=O)N(C)CC)CC(=O)N1C [PP2026] | A (a compound having 10 or more and less than 20 is denoted as A) | A (a compound having 10 or more and less than 20 is denoted as A) |
| CCCOC[C@H]1C(=O)N[C@@H]([C@@H](C)CC)C(=O)N(C)CC(=O)N(C)[C@H]2C/C=C\CCN(C2=O)[C@@H](Cc2ccc(C(F)(F)F)cc2)C(=O)N(C)CC(=O)N[C@@H](CCc2ccc(C(F)(F)F)c(OC)c2)C(=O)N2C[C@@H](C)C[C@H]2C(=O)NC2(CCC2)C(=O)N(C)[C@@H](C2CCCC2)C(=O)N(C)[C@H](C(=O)N(C)CC)CC(=O)N1C [PP2027] | B (a compound having 3 or more and less than 10 is denoted as B) | A (a compound having 10 or more and less than 20 is denoted as A) |
| CCCOC[C@H]1C(=O)N[C@@H]([C@@H](C)CC)C(=O)N(C)CC(=O)N(C)[C@H]2C/C=C\CCN(C2=O)[C@@H](Cc2ccc(C(F)(F)F)cc2)C(=O)N(C)CC(=O)N[C@@H](CCc2ccc(C(F)(F)F)c(OC)c2)C(=O)N2C[C@@H](C)C[C@H]2C(=O)NC2(CCC2)C(=O)N(C)[C@@H](C2CCCC2)C(=O)N(C)[C@H](C(=O)N(C)CCC)CC(=O)N1C [PP2028] | B (a compound having 3 or more and less than 10 is denoted as B) | A (a compound having 10 or more and less than 20 is denoted as A) |
| CCCN(C)C(=O)[C@@H]1CC(=O)N(C)[C@@H](CCOC)C(=O)N[C@@H]([C@@H](C)CC)C(=O)N(C)CC(=O)N(C)[C@H]2C/C=C\CCN(C2=O)[C@@H](Cc2ccc(C(F)(F)F)cc2)C(=O)N(C)CC(=O)N[C@@H](CCc2ccc(C(F)(F)F)c(OC)c2)C(=O)N2C[C@@H](C)C[C@H]2C(=O)NC2(CCC2)C(=O)N(C)[C@@H](C2CCCC2)C(=O)N1C [PP2029] | B (a compound having 3 or more and less than 10 is denoted as B) | A (a compound having 10 or more and less than 20 is denoted as A) |
